Where a SMILES comes first, the peptide text is derived from it.
Assays:
GluN1a–GluN2B = assay type: cell-based
[1] = system: recombinant NMDAr comprised of either GluN1a–GluN2A or GluN1a–GluN2B subunits; assay type: cell-based
GluN1a–GluN2A = assay type: cell-based
[2] = system: NMDA-evoked currents in cultured rat embryonic hippocampal neurons (NMDAr); details: for IC50: pH 7.4

SMILES | block of NMDA-evoked currents, GluN1a–GluN2B (GluN1a–GluN2B) | difference between control-NMDA and wash-NMDA (reversibility) [1] | off rate (from short-lived current increase on simultaneous removal of NMDA + peptide) [1] | reversibility, recombinant NMDAr versus neuronal NMDAr [1] | block of NMDA-evoked currents, GluN1a–GluN2A (GluN1a–GluN2A) | dose dependence of inhibition [2] | off rate (from transient current increase on simultaneous removal of NMDA + peptide) [2] | reversibility of block [2] | use-dependence of block [2] | IC50 [2]
CC[C@H](C)[C@H](NC(=O)[C@H](CC(C)C)NC(=O)[C@H](CC(=O)O)NC(=O)[C@H](CCC(N)=O)NC(=O)[C@H](CC(N)=O)NC(=O)[C@H](CC(=O)O)NC(=O)[C@H](CCC(N)=O)NC(=O)[C@H](CC(C)C)NC(=O)[C@H](CC(=O)O)NC(=O)[C@H](CC(=O)O)NC(=O)[C@H](CCC(=O)O)NC(=O)CN)C(=O)N[C@@H](CCCNC(=N)N)C(=O)N[C@@H](CC(=O)O)C(=O)N[C@@H](CCCCN)C(=O)N[C@@H](CO)C(=O)N[C@@H](CC(N)=O)C(=O)O [EAR16] (H-GEDDLQDNQDLIRDKSN-OH) | 84% | No significant difference | fast enough that would allow binding of NMDA early on during washout | faster from the recombinant NMDAr than from NMDAr expressed in neuronal cells | 50% | dose-dependent | fast enough that would allow binding of NMDA early on during washout | highly reversible | no clear use-dependence | 241 µM
CC[C@H](C)[C@H](NC(=O)[C@H](CC(C)C)NC(=O)[C@H](CC(=O)O)NC(=O)[C@H](CCC(N)=O)NC(=O)[C@H](C)NC(=O)[C@H](CC(=O)O)NC(=O)[C@H](CCC(N)=O)NC(=O)[C@H](Cc1ccc(O)cc1)NC(=O)[C@H](CC(=O)O)NC(=O)[C@H](CC(=O)O)NC(=O)[C@H](CCC(=O)O)NC(=O)CN)C(=O)N[C@@H](CCCNC(=N)N)C(=O)N[C@@H](CC(=O)O)C(=O)N[C@@H](CCCCN)C(=O)N[C@@H](CO)C(=O)N[C@@H](CC(N)=O)C(=O)O [EAR18] (H-GEDDYQDAQDLIRDKSN-OH) | – | – | – | – | – | – | – | – | – | 176 µM
